Source: publication PMC10940605, “Design, synthesis and in vitro anticancer activity of some new lomefloxacin derivatives” (Scientific Reports, 2024)

Tests used:
MDA-MB-468 = experiment: NCI-60 SRB screen; format: cell-based; conditions: Homo sapiens; MDA-MB-468, 10^–5 Molar; read-out: Percent growth inhibition
Method: (§1) All newly synthesized compounds were selected and screened for anticancer activity against 60 human cancer cell lines representing 9 types of tumors including leukemia, melanoma, lung, colon, CNS, ovarian, renal, prostate, and breast cancers at the National Cancer Institute (NCI), Bethesda, USA. Screening was performed utilizing a single dose (10^−5 M concentration) and cells were incubated for 48 h. The end point was determined using sulforhodamine B (SRB) dye.
(§2) In this study, all the 16 newly synthesized compounds were submitted to the National Cancer Institute (USA) for anticancer evaluation and were selected and evaluated using 60 different human tumor cell lines representing lung, colon, CNS, ovarian, renal, prostate, breast cancers as well as leukemia and melanoma. A single dose (10^–5 Molar) was used for the initial screening for evaluation of anticancer activity. The 60 human cancer cell lines were provided by the national cancer institute biomedical research campus in Frederick, Maryland.
(§3) 60 different human cancer cell lines were utilized to screen the newly synthesized compounds for anticancer activity according to the previously reported standard procedure[24]–[26] as follows: • 96 well microtiter plates were used to inoculate the cells at […] ranging from 4000–5000 cells/well depending on the replication time of individual cell lines. Roswell Park Memorial Institute culture medium (RPMI 1640 medium) containing 2 mM L-glutamine and fetal bovine serum was used to grow the cells at 37 °C, 5% CO2, 95% air and 100% relative humidity for 24 h. • Fixation of cells in two plates of each cell line in situ was done using trichloroacetic acid (TCA). This represented the measurement of cell population at the time of drug addition (Tz). • Dimethyl sulfoxide (DMSO) was used to dissolve the synthesized compounds at 400-fold the desired final maximum concentration and frozen prior to use. This frozen concentrate was melted and diluted to twice the final concentration with complete medium containing 50 µg/mL gentamycin at time of drug addition. • The final compound concentration was obtained by adding 100 µL of the synthesized compounds to the appropriate microtiter wells already containing 100 µL followed by incubation of the plates at 37 °C, 5% CO2, 95% air and 100% relative humidity for 48 h. • Fixation of the cells was achieved by gentle addition of 50 µL of cold 50% (w/v) TCA followed by incubation for 60 min at 4 °C. The supernatant was then discarded and the plates are washed 5 times with tap water and air dried. • Sulphorhodamine B (SRB) solution (100 µL) at 0.4% (w/v) in 1% acetic acid was added to each plate followed by incubation for 10 min at room temperature. The unbound dye was then removed by washing five times with 1% acetic acid and plates were air dried. • Dissolution of the bound stain was done using […] trizma base and the absorbance was read at […] wavelength using an automated plate reader. • The percentage growth inhibition was calculated as follows: Ti-Tz/C-Tz×100forconcentrationswhichTi≥Tz Ti-Tz/Tz×100forconcentrationswhichTi<Tz • Time zero (Tz) • Control growth (C) • Test growth in the presence of drug (Ti)

786-0 = experiment: NCI-60 SRB screen; format: cell-based; conditions: Homo sapiens; 786-0, 10^–5 Molar; read-out: Percent growth inhibition
Method: as §1, §2, §3

LOX IMVI = experiment: NCI-60 SRB screen; format: cell-based; conditions: Homo sapiens, 10^–5 Molar, read-out: Percent growth inhibition
Method: as §1, §2, §3

SF-295 = experiment: NCI-60 SRB screen; format: cell-based; conditions: Homo sapiens; SF-295, 10^–5 Molar; read-out: Percent growth inhibition
Method: as §1, §2, §3

CAKI-1 = experiment: NCI-60 SRB screen; format: cell-based; conditions: Homo sapiens; CAKI-1, 10^–5 Molar; read-out: Percent growth inhibition
Method: as §1, §2, §3

SK-MEL-28 = experiment: NCI-60 SRB screen; format: cell-based; conditions: Homo sapiens; SK-MEL-28, 10^–5 Molar; read-out: Percent growth inhibition
Method: as §1, §2, §3

SNB-19 = experiment: NCI-60 SRB screen; format: cell-based; conditions: Homo sapiens; SNB-19, 10^–5 Molar; read-out: Percent growth inhibition
Method: as §1, §2, §3

NCI/ADR-RES = experiment: NCI-60 SRB screen; format: cell-based; conditions: Homo sapiens, 10^–5 Molar, read-out: Percent growth inhibition
Method: as §1, §2, §3

OVCAR-5 = experiment: NCI-60 SRB screen; format: cell-based; conditions: Homo sapiens; OVCAR-5, 10^–5 Molar; read-out: Percent growth inhibition
Method: as §1, §2, §3

OVCAR-4 = experiment: NCI-60 SRB screen; format: cell-based; conditions: Homo sapiens; OVCAR-4, 10^–5 Molar; read-out: Percent growth inhibition
Method: as §1, §2, §3

NCI-H23 = experiment: NCI-60 SRB screen; format: cell-based; conditions: Homo sapiens; NCI-H23, 10^–5 Molar; read-out: Percent growth inhibition
Method: as §1, §2, §3

MDA-MB-435 = experiment: NCI-60 SRB screen; format: cell-based; conditions: Homo sapiens; MDA-MB-435, 10^–5 Molar; read-out: Percent growth inhibition
Method: as §1, §2, §3

SF-268 = experiment: NCI-60 SRB screen; format: cell-based; conditions: Homo sapiens; SF-268, 10^–5 Molar; read-out: Percent growth inhibition
Method: as §1, §2, §3

NCI-H460 = experiment: NCI-60 SRB screen; format: cell-based; conditions: Homo sapiens; NCI-H460, 10^–5 Molar; read-out: Percent growth inhibition
Method: as §1, §2, §3

MALME-3M = experiment: NCI-60 SRB screen; format: cell-based; conditions: Homo sapiens, 10^–5 Molar, read-out: Percent growth inhibition
Method: as §1, §2, §3

HOP-92 = experiment: NCI-60 SRB screen; format: cell-based; conditions: Homo sapiens; HOP-92, 10^–5 Molar; read-out: Percent growth inhibition
Method: as §1, §2, §3

SNB-75 = experiment: NCI-60 SRB screen; format: cell-based; conditions: Homo sapiens; SNB-75, 10^–5 Molar; read-out: Percent growth inhibition
Method: as §1, §2, §3

T-47D = experiment: NCI-60 SRB screen; format: cell-based; conditions: Homo sapiens, T47D, 10^–5 Molar, read-out: Percent growth inhibition
Method: as §1, §2, §3

HS 578T = experiment: NCI-60 SRB screen; format: cell-based; conditions: Homo sapiens, 10^–5 Molar, read-out: Percent growth inhibition
Method: as §1, §2, §3

BT-549 = experiment: NCI-60 SRB screen; format: cell-based; conditions: Homo sapiens; BT-549, 10^–5 Molar; read-out: Percent growth inhibition
Method: as §1, §2, §3

NCI-H226 = experiment: NCI-60 SRB screen; format: cell-based; conditions: Homo sapiens; NCI-H226, 10^–5 Molar; read-out: Percent growth inhibition
Method: as §1, §2, §3

HOP-62 = experiment: NCI-60 SRB screen; format: cell-based; conditions: Homo sapiens; HOP-62, 10^–5 Molar; read-out: Percent growth inhibition
Method: as §1, §2, §3

OVCAR-3 = experiment: NCI-60 SRB screen; format: cell-based; conditions: Homo sapiens; OVCAR-3, 10^–5 Molar; read-out: Percent growth inhibition

| SMILES | melting point [°C] | inhibition at 10 µM (MDA-MB-468) [%] | inhibition at 10 µM (786-0) [%] | inhibition at 10 µM (LOX IMVI) [%] | inhibition at 10 µM (SF-295) [%] | inhibition at 10 µM (CAKI-1) [%] | inhibition at 10 µM (SK-MEL-28) [%] | inhibition at 10 µM (SNB-19) [%] | inhibition at 10 µM (NCI/ADR-RES) [%] | inhibition at 10 µM (OVCAR-5) [%] | inhibition at 10 µM (OVCAR-4) [%] | inhibition at 10 µM (NCI-H23) [%] | inhibition at 10 µM (MDA-MB-435) [%] | inhibition at 10 µM (SF-268) [%] | inhibition at 10 µM (NCI-H460) [%] | inhibition at 10 µM (MALME-3M) [%] | inhibition at 10 µM (HOP-92) [%] | inhibition at 10 µM (SNB-75) [%] | inhibition at 10 µM (T-47D) [%] | inhibition at 10 µM (HS 578T) [%] | other results |
| --- | --- | --- | --- | --- | --- | --- | --- | --- | --- | --- | --- | --- | --- | --- | --- | --- | --- | --- | --- | --- | --- |
| CCn1cc(C(=O)O)c(=O)c2cc(F)c(N3CCN(CC(=O)Nc4ccccc4)C(C)C3)c(F)c21 (stereo not drawn) [Compound 5a, 1-Ethyl-6,8-difluoro-7-(3-methyl-4-(2-oxo-2-(phenylamino)ethyl)piperazin-1-yl)-4-oxo-1,4-dihydroquinoline-3-carboxylic acid] | 248 to 250 | 7.38 | 7.47 | 11.5 | 4.71 | 13 | 3 | 0.85 | 3.34 | 1.71 | 17.6 | 8.68 | 2.9 | 6.33 | 0.79 | 2.09 | 2.95 | 13.9 | 4.6 | 8.88 | – |
| CCn1cc(C(=O)O)c(=O)c2cc(F)c(N3CCN(CC(=O)Nc4ccc(Cl)cc4)C(C)C3)c(F)c21 (stereo not drawn) [Compound 5b, 7-(4-(2-((4-Chlorophenyl)amino)-2-oxoethyl)-3-methylpiperazin-1-yl)-1-ethyl-6,8-difluoro-4-oxo-1,4-dihydroquinoline-3-carboxylic acid] | 218 to 220 | 7.4 | – | 9.13 | 13 | 13.7 | 6.48 | 1.6 | 8.06 | – | 22.2 | 7.93 | 5.85 | 6.49 | 9.4 | 4.32 | 9.45 | 17.7 | 11.2 | 11.2 | inhibition at 10 µM (BT-549): 0.23%; inhibition at 10 µM (NCI-H226): 3.83% |
| CCn1cc(C(=O)O)c(=O)c2cc(F)c(N3CCN(C(=O)c4ccccc4)C(C)C3)c(F)c21 (stereo not drawn) [Compound 7a, 7-(4-Benzoyl-3-methylpiperazin-1-yl)-1-ethyl-6,8-difluoro-4-oxo-1,4-dihydroquinoline-3-carboxylic acid] | 290 to 292 | 4.54 | 14.7 | 19.1 | 6.9 | 15.4 | 4.44 | – | 20.4 | 5.65 | 20.5 | 4.39 | 4.07 | 9.47 | 4.91 | 4.96 | 31.8 | 21.7 | 18.1 | 18.1 | inhibition at 10 µM (BT-549): 3.33%; inhibition at 10 µM (HOP-62): 4.44%; inhibition at 10 µM (NCI-H226): 2.44%; inhibition at 10 µM (OVCAR-3): 3.69% |
